Results from patent US11529323B2 (priority 2017, dated 2022).

Tests used:
[1] = test system: C-26 colon adenocarcinoma cachexia model; test: Initial AR-42/GTx-024 combination study (Study 1), C-26 model; type: in vivo, mouse; settings: for effect on gastrocnemius and quadriceps mass: monotherapy (GTx-024 15 mg/kg; AR-42 10 mg/kg)
Procedure: These studies were performed as previously described (Tseng Y C, et al. J Natl Cancer Inst. 2015 107(12):djv274) with modifications. Tumors were established in the right flank by subcutaneous injection of C-26 cells (0.5×10^6 cells in 0.1 mL). […] TFM-4AS-1 (a potent experimental SARM), dihydrotestosterone (DHT) and vehicles were administered by subcutaneous injection.
Male CD2F1 mice were stratified by body weight and then randomly assigned into 6 groups of 6 animals each. Historically, 6 animals per group provided sufficient power to detect treatment-mediated differences in tumor-bearing treated animals compared to controls. Tumors were established in four of the groups, while the fifth and sixth groups served as tumor-free controls. Six days later, animals with palpable tumors were treated twice daily for 13 days. […] Body weight, tumor volume, and feed consumption were monitored every other day. Upon sacrifice on day 18, sera were collected and hind limb skeletal muscles, heart, spleen and epididymal adipose tissues were harvested, weighed, flash frozen, and stored for subsequent analyses.
Male CD2F1 mice (6-7 weeks of age; Harlan Laboratories, Indianapolis, Ind.) were group-housed under conditions of constant photoperiod (12-hour light/12-hour dark), temperature and humidity with ad libitum access to water and standard pelleted chow. […] In experiments in which food consumption was determined, the food in each cage was weighed daily and the daily decrease in food weight was divided by the number of mice in the cage. Tumor volumes were calculated from caliper measurements using a standard formula (length×width^2×π/6). Mice were euthanized by CO2 inhalation.

[2] = oral gavage every other day; cited from earlier work
phospho-STAT3 (pSTAT3) = test: Western blot of phospho-STAT3 in gastrocnemius muscle, Study 1; type: in vivo, mouse; settings: C-26 tumor-bearing animals
From the text: FIG. 4A is a table showing multiplex analysis of diverse serum cytokines in terminal samples from Study 2. Presented cytokines are limited to those showing significant differences from tumor-bearing vehicle-treated controls. G-CSF: granulocyte colony-stimulating factor, GM-CSF: granulocyte macrophage colony-stimulating factor, IL-6: interleukin-6, IL-17: interleukin-17, IP-10: interferon gamma-induced protein 10, KC: chemokine (C-X-C motif) ligand 1, LIF: leukemia inhibitory factor, M-CSF: macrophage colony-stimulating factor. FIG. 4B is a bar graph showin ELISA analysis of serum IL-6 levels in terminal samples from Study 2. ND, not detected. FIG. 4C is a plot showing individual animal serum IL-6 values as determined in A plotted against tumor-corrected terminal bodyweights from Study 2 (Pearson's Correlation). […]
(§1) Western blots from all studies were performed on gastrocnemius muscle from representative animals lysed by Nonidet P-40 isotonic lysis buffer [50 mM Tris-HCl, pH 7.5, 120 mM NaCl, 1% (v/v) Nonidet P-40, 1 mM EDTA, 50 mM NaF, 40 mM glycerophosphate, and […] each of protease inhibitors (aprotinin, pepstatin, and leupeptin)]. Equivalent amounts of protein from each sample, as determined by Bradford assay (Bio-Rad), was resolved by SDS-PAGE and then transferred (semi-dry) onto immobilon-nitrocellulose membranes (Millipore, Billerica, Mass.). […]

androgen receptor (AR) = test: Western blot of androgen receptor in gastrocnemius muscle, Study 1; type: in vivo, mouse; settings: irrespective of tumor burden
Procedure: FIGS. 3A-B show gene expression of multiple cachexia-associated markers in gastrocnemius muscles of individual animals from Study 1 (n=5-6 per group). Expression was determined by qRT-PCR (Geometric Mean±Geometric STD). FIG. 3A contains bar graphs showing genes associated with muscle atrophy. FIG. 3B is a bar graph showing androgen receptor (AR) mRNA expression. […] Statistics all panels: *p<0.05, ***p<0.001, ****p<0.0001 versus tumor-bearing vehicle-treated controls, Dunnett's multiple comparison test. CEBPO, n=4, insufficient sample to analyze all tumor-bearing GTx-024-treated animals.
as §1, with “Mass.). Membranes were washed twice with TBST [Tris-buffered saline (TBS) containing 0.1% Tween 20], blocked with 5% nonfat milk in TBST for 1 hour, and then washed an additional 3 times.” for “Mass.).”

IL-6 = test: Serum IL-6 ELISA, Study 2; type: in vivo, mouse; settings: Study 2 terminal serum; AR-42 10 mg/kg
From the text: FIG. 4A is a table showing multiplex analysis of diverse serum cytokines in terminal samples from Study 2. Presented cytokines are limited to those showing significant differences from tumor-bearing vehicle-treated controls. G-CSF: granulocyte colony-stimulating factor, GM-CSF: granulocyte macrophage colony-stimulating factor, IL-6: interleukin-6, IL-17: interleukin-17, IP-10: interferon gamma-induced protein 10, KC: chemokine (C-X-C motif) ligand 1, LIF: leukemia inhibitory factor, M-CSF: macrophage colony-stimulating factor. FIG. 4B is a bar graph showin ELISA analysis of serum IL-6 levels in terminal samples from Study 2. ND, not detected. FIG. 4C is a plot showing individual animal serum IL-6 values as determined in A plotted against tumor-corrected terminal bodyweights from Study 2 (Pearson's Correlation). […] FIG. 4E is a plot showing spleen weights normalized to tumor-corrected terminal body weights of mice from Study 2. FIG. 4F is a bar graph showing ELISA analysis of STAT3 within C-26 tumors from Study 2. […]
Serum cytokine panel analyses were performed by a commercial vendor (Eve Technologies, Calgary, Canada) as previously described. Serum interleukin-6 (IL-6) was measured using a commercial ELISA kit (R&D Systems, Minneapolis, Minn., USA) according to the manufacturer's instructions.

C-26 tumor-bearing mice = settings: AR-42 50 mg/kg, Tseng et al. 2015, cited from earlier work

Row | Structure (SMILES) | terminal body weight, corrected for tumor weight ([1]; Study 1, Day 18, C-26 tumor-bearing, AR-42 10 mg/kg, GTx-024 15 mg/kg, oral, 13 days) | effect on gastrocnemius and quadriceps mass ([1]; Study 1, C-26 tumor-bearing) | maximally tolerated dose in mice [2] [mg/kg] | pSTAT3 abundance in gastrocnemius muscle (phospho-STAT3 (pSTAT3)) | AR protein expression in gastrocnemius (androgen receptor (AR)) | circulating IL-6 levels (ELISA) (IL-6) | effect on adipose (C-26 tumor-bearing mice) | serum IL-6 levels and gastrocnemius IL-6 receptor mRNA abundance (C-26 tumor-bearing mice; tumor-bearing mice) | effect on body weight ([1]; Study 1, C-26 tumor-bearing, GTx-024 15 mg/kg monotherapy) | per animal food consumption ([1]; Study 1, between day 14 and 16, GTx-024 in tumor-free animals, combination in tumor-bearing animals, relative to other groups) | body weight in tumor-free controls ([1]; Study 1, tumor-free mice, GTx-024 15 mg/kg)
1 | CC(C)[C@H](C(=O)Nc1ccc(C(=O)NO)cc1)c1ccccc1 [AR-42, (S)—N-hydroxy-4-(3-methyl-2-phenylbutanamido)benzamide] | 93.6±7.7 % of baseline | not translated into significant improvements in gastrocnemius and quadriceps mass | 50 | reduced pSTAT3 but not equally in all animals | did not have a marked impact on AR expression | did not affect circulating IL-6 levels | adipose-sparing effect | reduced serum IL-6 levels, as well as gastrocnemius IL-6 receptor mRNA abundance |  |  | 
2 | C[C@](O)(COc1ccc(C#N)cc1)C(=O)Nc1ccc(C#N)c(C(F)(F)F)c1 [GTx-024, (2S)-3-(4-cyanophenoxy)-N-(4-cyano-3-(trifluoromethyl)phenyl)-2-hydroxy-2-methylpropanamide] |  | did not spare |  | no apparent effect on pSTAT3 | increased |  |  |  | did not spare body weight | small increases in per animal food consumption | did not cause body weight loss
